Each structure is given as a SMILES string.

One assay has as its system MV-4-11 cells. Description: Cell Viability Assay in MV-4-11 Cells. The assay is classed as cell-based. The following applies: Homo sapiens, MV4-11, 72 h. The procedure, abridged:
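Luminescent ATP read-out (CellTiter-Glo) after 72 h compound treatment of MV-4-11 leukaemia cells (7,000 per well, IMDM plus 10% FBS). Values expressed relative to DMSO control and derived by four-parameter non-linear regression.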
For `C=C(C)c1csc2c(N(C(=O)c3ccc(-c4cn(C)nn4)cc3F)[C@@H]3CCCNC3)nccc12` [Example 675, 2-fluoro-N-(3-isopropenylthieno[2,3-c]703yridine-7-yl)-4-(1-methyltriazol-4-yl)-N-[(3R)-3-piperidyl]benzamide], the IC50 was > 1000 nM.
Take `CNC(=O)c1ccc2c(N(C(=O)c3ccc(-c4cn(C)nn4)cc3F)[C@@H]3CCCNC3)nccc2c1` [Example 688, (R)-1-(2-fluoro-4-(1-methyl-1H-1,2,3-triazol-4-yl)-N-(piperidin-3-yl)benzamido)-N-methylisoquinoline-6-carboxamide]: the IC50 is > 4500 nM.

Still in this assay, the particulars now being: Homo sapiens, MV4-11, 72 h, MV-4-11 cells, 72 h, Cell-Titer Glo; read-out: IC50.
In the case of `CCc1nnc(-c2ccc(C(=O)N(c3nccc4scc(C)c34)[C@@H]3CCCNC3)nc2)s1` [Example 670, (R)-5-(5-ethyl-1,3,4-thiadiazol-2-yl)-N-(3-methylthieno[3,2-c]pyridin-4-yl)-N-(piperidin-3-yl)picolinamide], the IC50 worked out at 170 nM.
As for `CCc1nnc(-c2ccc(C(=O)N(c3nccc4cc(C)cc(C)c34)[C@@H]3CCCNC3)nc2)s1` [Example 671, (R)—N-(6,8-dimethylisoquinolin-1-yl)-5-(5-ethyl-1,3,4-thiadiazol-2-yl)-N-(piperidin-3-yl)picolinamide], the IC50 came to 130 nM.
Turning to `CCc1nnc(-c2ccc(C(=O)N(c3nccc4cc(F)cc(C)c34)[C@@H]3CCCNC3)nc2)s1` [Example 672, (R)-5-(5-ethyl-1,3,4-thiadiazol-2-yl)-N-(6-fluoro-8-methylisoquinolin-1-yl)-N-(piperidin-3-yl)picolinamide], the IC50 is 180 nM.
Same read-out and setting: in the case of `CCc1nnc(-c2ccc(C(=O)N(c3nccc4cccc(C)c34)[C@@H]3CCCNC3)nc2)s1` [Example 673, 5-(5-ethyl-1,3,4-thiadiazol-2-yl)-N-(8-methyl-1-isoquinolyl)-N-[(3R)-3-piperidyl]pyridine-2-carboxamide] it was 240 nM; in that of `C#Cc1csc2ccnc(N(C(=O)c3ccc(-c4cn(C)nn4)cc3F)[C@@H]3CCCNC3)c12` [Example 674, (R)—N-(3-ethynylthieno[3,2-c]pyridin-4-yl)-2-fluoro-4-(1-methyl-1H-1,2,3-triazol-4-yl)-N-(piperidin-3-yl)benzamide], 100 nM.
`C#Cc1csc2c(N(C(=O)c3ccc(-c4cn(C)nn4)cc3F)[C@@H]3CCCNC3)nccc12` [Example 676, N-(3-ethynylthieno[2,3-c]704yridine-7-yl)-2-fluoro-4-(1-methyltriazol-4-yl)-N-[(3R)-3-piperidyl]benzamide]: the 50% inhibitory concentration (IC50) is 190 nM.
As for `Cc1csc2c(N(C(=O)c3ccc(-c4cn(C)nn4)cc3F)[C@@H]3CCCNC3)nccc12` [Example 677, (R)-2-fluoro-4-(1-methyl-1H-1,2,3-triazol-4-yl)-N-(3-methylthieno[2,3-c]pyridin-7-yl)-N-(piperidin-3-yl)benzamide], the IC50 amounted to 1400 nM.
For the compound `Cn1cc(-c2ccc(C(=O)N(c3nccc4c(Cl)csc34)[C@@H]3CCCNC3)c(F)c2)nn1` [Example 678, N-(3-chlorothieno[2,3-c]705yridine-7-yl)-2-fluoro-4-(1-methyltriazol-4-yl)-N-[(3R)-3-piperidyl]benzamide], the IC50 is 350 nM.
As for `Cc1cccc2ccnc(N(C(=O)c3ccc(Nc4nccc(C5CCC(O)CC5)n4)cc3F)[C@@H]3CCCNC3)c12` (stereo partly drawn) [Example 679, (R)-2-fluoro-4-((4-(4-hydroxycyclohexyl)pyrimidin-2-yl)amino)-N-(8-methylisoquinolin-1-yl)-N-(piperidin-3-yl)benzamide], the half-maximal inhibitory concentration (IC50) came out at 200 nM.
In the case of `Cc1cccc2ccnc(N(C(=O)c3ccc(Nc4nccc(N5CC(O)C5)n4)cc3F)[C@@H]3CCCNC3)c12` [Example 680, (R)-2-fluoro-4-((4-(3-hydroxyazetidin-1-yl)pyrimidin-2-yl)amino)-N-(8-methylisoquinolin-1-yl)-N-(piperidin-3-yl)benzamide], the IC50 was 75 nM.
For `Cc1cccc2ccnc(N(C(=O)c3ccc(Nc4nccc(C5=CCC(O)CC5)n4)cc3F)[C@@H]3CCCNC3)c12` (stereo partly drawn) [Example 681, 2-fluoro-4-((4-(4-hydroxycyclohex-1-en-1-yl)pyrimidin-2-yl)amino)-N-(8-methylisoquinolin-1-yl)-N—((R)-piperidin-3-yl)benzamide], the IC50 is 32 nM.
Take `Cc1cccc2ccnc(N(C(=O)c3ccc(Nc4nccc(C5=CCN(C)CC5)n4)cc3F)[C@@H]3CCCNC3)c12` [Example 682, (R)-2-fluoro-4-((4-(1-methyl-1,2,3,6-tetrahydropyridin-4-yl)pyrimidin-2-yl)amino)-N-(8-methylisoquinolin-1-yl)-N-(piperidin-3-yl)benzamide]: the IC50 was 83 nM.
Regarding `Cc1cccc2ccnc(N(C(=O)c3ccc(Nc4nccc(Nc5ccncc5)n4)cc3F)[C@@H]3CCCNC3)c12` [Example 683, (R)-2-fluoro-N-(8-methylisoquinolin-1-yl)-N-(piperidin-3-yl)-4-((4-(pyridin-4-ylamino)pyrimidin-2-yl)amino)benzamide], the IC50 was determined as 210 nM.
The same measure, in the same setting: with `Cc1cccc2ccnc(N(C(=O)c3ccc(Nc4nccc(N5CC[C@@H](O)C5)n4)cc3F)[C@@H]3CCCNC3)c12` [Example 684, 2-fluoro-4-((4-((R)-3-hydroxypyrrolidin-1-yl)pyrimidin-2-yl)amino)-N-(8-methylisoquinolin-1-yl)-N—((R)-piperidin-3-yl)benzamide] the figure was 59 nM; with `Cc1cccc2ccnc(N(C(=O)c3ccc(Nc4nccc(C5=CCOCC5)n4)cc3F)[C@@H]3CCCNC3)c12` [Example 685, (R)-4-((4-(3,6-dihydro-2H-pyran-4-yl)pyrimidin-2-yl)amino)-2-fluoro-N-(8-methylisoquinolin-1-yl)-N-(piperidin-3-yl)benzamide], 49 nM.
For the compound `Cc1cccc2ccnc(N(C(=O)c3ccc(Nc4nccc(CN5CCNCC5)n4)cc3F)[C@@H]3CCCNC3)c12` [Example 686, (R)-2-fluoro-N-(8-methylisoquinolin-1-yl)-4-((4-(piperazin-1-ylmethyl)pyrimidin-2-yl)amino)-N-(piperidin-3-yl)benzamide], the IC50 worked out at 460 nM.
Take `Cc1cccc2ccnc(N(C(=O)c3ccc(Nc4nccc(CN5CCCCC5)n4)cc3F)[C@@H]3CCCNC3)c12` [Example 687, (R)-2-fluoro-N-(8-methylisoquinolin-1-yl)-4-((4-(piperidin-1-ylmethyl)pyrimidin-2-yl)amino)-N-(piperidin-3-yl)benzamide]: the IC50 came to 40 nM.
In the case of `Cc1cn(-c2ccc(C(=O)N(c3nccc4scc(C)c34)[C@@H]3CCCNC3)cc2)nn1` [Example 689, (R)-4-(4-methyl-1H-1,2,3-triazol-1-yl)-N-(3-methylthieno[3,2-c]pyridin-4-yl)-N-(piperidin-3-yl)benzamide], the half-maximal inhibitory concentration (IC50) was 120 nM.
Still for that read-out and setting: with `Cc1cn(-c2ccc(C(=O)N(c3nccc4scc(C)c34)[C@@H]3CCCNC3)c(F)c2)nn1` [Example 690, (R)-2-fluoro-4-(4-methyl-1H-1,2,3-triazol-1-yl)-N-(3-methylthieno[3,2-c]pyridin-4-yl)-N-(piperidin-3-yl)benzamide] the figure was 150 nM.
Consider `Cc1cn(-c2ccc(C(=O)N(c3nccc4cc(Cl)cc(C)c34)[C@@H]3CCCNC3)c(F)c2)nn1` [Example 691, (R)—N-(6-chloro-8-methylisoquinolin-1-yl)-2-fluoro-4-(4-methyl-1H-1,2,3-triazol-1-yl)-N-(piperidin-3-yl)benzamide], for which the IC50 is 110 nM.
In the case of `C=C(C)c1ccc2c(N(C(=O)c3ccc(-c4cn(C)nn4)cc3F)[C@@H]3CCCNC3)nccc2c1` [Example 692, (R)-2-fluoro-4-(1-methyl-1H-1,2,3-triazol-4-yl)-N-(piperidin-3-yl)-N-(6-(prop-1-en-2-yl)isoquinolin-1-yl)benzamide], the half-maximal inhibitory concentration (IC50) was found to be 350 nM.
Turning to `Cc1cccc2ccnc(N(C(=O)c3ccc(Nc4nccc(NCc5nccs5)n4)cc3F)[C@@H]3CCCNC3)c12` [Example 693, (R)-2-fluoro-N-(8-methylisoquinolin-1-yl)-N-(piperidin-3-yl)-4-((4-((thiazol-2-ylmethyl)amino)pyrimidin-2-yl)amino)benzamide], the IC50 came out at 120 nM.
Turning to `Cc1cccc2ccnc(N(C(=O)c3ccc(Nc4nccc(NCc5cnn(C)c5)n4)cc3F)[C@@H]3CCCNC3)c12` [Example 694, (R)-2-fluoro-4-((4-(((1-methyl-1H-pyrazol-4-yl)methyl)amino)pyrimidin-2-yl)amino)-N-(8-methylisoquinolin-1-yl)-N-(piperidin-3-yl)benzamide], the IC50 came to 46 nM.
For the compound `Cc1cccc2ccnc(N(C(=O)c3ccc(Nc4nccc(NCc5ccccn5)n4)cc3F)[C@@H]3CCCNC3)c12` [Example 695, (R)-2-fluoro-N-(8-methylisoquinolin-1-yl)-N-(piperidin-3-yl)-4-((4-((pyridin-2-ylmethyl)amino)pyrimidin-2-yl)amino)benzamide], the IC50 came out at 130 nM.
With `Cc1cccc2ccnc(N(C(=O)c3ccc(Nc4nccc(NCc5cccnc5)n4)cc3F)[C@@H]3CCCNC3)c12` [Example 696, (R)-2-fluoro-N-(8-methylisoquinolin-1-yl)-N-(piperidin-3-yl)-4-((4-((pyridin-3-ylmethyl)amino)pyrimidin-2-yl)amino)benzamide], the IC50 stood at 200 nM.
With `Cc1cccc2ccnc(N(C(=O)c3ccc(Nc4nccc(NCc5ccncc5)n4)cc3F)[C@@H]3CCCNC3)c12` [Example 697, (R)-2-fluoro-N-(8-methylisoquinolin-1-yl)-N-(piperidin-3-yl)-4-((4-((pyridin-4-ylmethyl)amino)pyrimidin-2-yl)amino)benzamide], the IC50 was 200 nM.
Consider `CCc1nnc(-c2ccc(C(=O)N(c3nccc4scc(C)c34)[C@@H]3CCCNC3)c(F)c2)s1` [Example 698, (R)-4-(5-ethyl-1,3,4-thiadiazol-2-yl)-2-fluoro-N-(3-methylthieno[3,2-c]pyridin-4-yl)-N-(piperidin-3-yl)benzamide], for which the 50% inhibitory concentration (IC50) is 170 nM.
As for `Cc1nnc(-c2ccc(C(=O)N(c3nccc4scc(C)c34)[C@@H]3CCCNC3)c(F)c2)o1` [Example 699, (R)-2-fluoro-4-(5-methyl-1,3,4-oxadiazol-2-yl)-N-(3-methylthieno[3,2-c]pyridin-4-yl)-N-(piperidin-3-yl)benzamide], the IC50 stood at 130 nM.

For the origin of these results see patent US20240400555A1 (Initial Therapeutics, Inc., priority 2023, published 2024).
